Laboratory results published in patent US7833531B2, “Method for treating insulin sensitivity by long-acting GLP-1 receptor mimetibody agonists” (Centocor, Inc., priority 2006, dated 2010).
“Also recorded” adds a separate entry of the source.

Assays:
Assay type in all cases: in vivo
[1] = test system: DIO mice; assay: Hyperinsulinemic euglycemic clamp, body weights and plasma parameters in DIO mice after acute treatment; conditions: for Body weight / FFA / Glucose / Glycerol / Insulin: single i.p. injection, mean ± SD; for FFA / Glucose / Glycerol / Insulin: plasma
Description: (§1) The effect of acute treatment of CNTO 736 (Table 4, SEQ ID NO:70) on insulin sensitivity and lipid metabolism was evaluated in C57Bl mice maintained on a high fat diet for 10 weeks (DIO mice). […] The effect of chronic treatment of CNTO 736 on insulin sensitivity and lipid metabolism was evaluated in C57Bl mice maintained on a high fat diet for 10 weeks. […] The hyperinsulinemic-euglycemic clamp was performed under Acepromazine (6.25 mg/kg)/Midazolam (6.25 mg/kg)/Fentanyl (0.3125 mg/kg) anaesthesia in the following manner. Mice had free access to high fat food and water until 10 hours prior to the clamp. […] Subsequently, insulin was administered in a primed (4.5 mU) continuous (6.8 mU/h) i.v. infusion for approximately 2 h to attain steady state circulating insulin levels of 4 ng/ml. […] VLDL-TG production was calculated from the slope of the concentration curve and expressed as gmol/kg/min. Turnover rates of glucose (μmol/min/kg) was calculated in basal and hyperinsulinemic conditions as the rate of tracer infusion (dpm/min) divided by the plasma specific activity of 14C-glucose (dpm/μmol). The ratio was corrected for body weight. Endogenous glucose production (EGP) was calculated as the difference between the tracer-derived rate of glucose appearance and the infusion rate of glucose. Glucose disposal was calculated based on the concentration of 14C-glucose normalized to infusion rate of glucose. The statistical significance (p<0.05) in various measures of glucose turnover and VLDL production among groups was tested by analysis of variance.

[2] = test system: DIO mice; assay: Hyperinsulinemic euglycemic clamp, body weights and plasma parameters in DIO mice after chronic treatment; conditions: for Body weight / FFA / Glycerol / Insulin / Glucose: daily i.p. injections weeks 7 through 10, mean ± SD; for FFA / Glycerol / Insulin / Glucose: plasma
Description: as §1, with “variance. […] Two hours after the last dose, mice were subjected to hyperinsulinemic euglycemic clamp.” for “variance.”

[3] = test system: DIO mice; assay: VLDL production in DIO mice after acute treatment
Description: (§2) The effect of acute treatment of CNTO 736 (Table 4, SEQ ID NO:70) on insulin sensitivity and lipid metabolism was evaluated in C57Bl mice maintained on a high fat diet for 10 weeks (DIO mice). […] The effect of chronic treatment of CNTO 736 on insulin sensitivity and lipid metabolism was evaluated in C57Bl mice maintained on a high fat diet for 10 weeks.
(§3) Blood samples (20 μl) were taken at t=0, 10, 20, 40 and 60 minutes after injection to determine the concentration of plasma triglycerides (TG). VLDL-TG production was calculated from the slope of the concentration curve and expressed as gmol/kg/min. Turnover rates of glucose (μmol/min/kg) was calculated in basal and hyperinsulinemic conditions as the rate of tracer infusion (dpm/min) divided by the plasma specific activity of 14C-glucose (dpm/μmol). The ratio was corrected for body weight. Endogenous glucose production (EGP) was calculated as the difference between the tracer-derived rate of glucose appearance and the infusion rate of glucose. Glucose disposal was calculated based on the concentration of 14C-glucose normalized to infusion rate of glucose. The statistical significance (p<0.05) in various measures of glucose turnover and VLDL production among groups was tested by analysis of variance.

[4] = test system: DIO mice; assay: VLDL production in DIO mice after chronic treatment; conditions: either dose of CNTO 736
Description: as §2, §3

[5] = test system: Sprague-Dawley rats; assay: Intracerebroventricular (icv) dosing in rats: food intake, water intake, body weight; conditions: icv 3 nmols
Description: Sprague-Dawley rats weighing 250-350 g were cannulized into the lateral ventricle at the following coordinates: −0.80 mm anterior, +1.2 mm lateral to bregma, −3.2 mm ventral to bregma. Animals were submitted for Angiotensin II testing to confirm that the cannulas were placed appropriately. Rats were acclimated to a reversed light/dark cycle and to handling. A 24-hour fasted/refed measurement was taken after a single PBS injection in order to establish a feeding baseline. Animals were evenly distributed according to 24-hour food intake from PBS injections (3 groups of 10 animals). Seven-ten days following PBS injection, rats were fasted for 24 hours and were dosed icv prior to entering the dark cycle.

[6] = acute, i.p., CNTO 736 1 mg/kg and 0.1 mg/kg, exenatide 7.1 ug/ml, clamp 2 hours post dosing, differences do not reach statistical significance
[7] = acute, CNTO 736 0.1 mgk, Hyperinsulinemic
[8] = acute, CNTO 736 1 mgk, Hyperinsulinemic
[9] = chronic, CNTO 736 0.1 mgk, Basal
[10] = chronic, CNTO 736 0.1 mgk, Hyperinsulinemic
[11] = chronic, CNTO 736 1 mgk, Hyperinsulinemic
[12] = 24 hours fasted rats, first 12 hours following dosing
[13] = second 12 hours following dosing (12-24 hours)

In the case of “CNTO 736: a GLP-1 receptor agonist, a GLP-1 mimetibody construct; sequence in Table 4 (SEQ ID NO:70)”, the “glycerol turnover (lipolysis)” value ([1]; acute administration, either dose, basal (fasting) or hyperinsulinemic conditions) is reported as “did not affect glycerol turnover”, the basal glucose production [1, 6] is reported as “tend to decrease the basal glucose production” and the “whole body glucose disposal” value [1, 6] is reported as “increase the whole body glucose disposal”. For the same substance, the Body weight ([1]; acute, CNTO 736 0.1 mgk, Basal) was 31.3 ± 1.6 g, the Body weight [1, 7] was 31.3 ± 1.6 g and the Body weight ([1]; acute, CNTO 736 1 mgk, Basal) was 31.2 ± 2.2 g. For the same substance, the Body weight [1, 8] was 31.2 ± 2.2 g, the FFA ([1]; acute, CNTO 736 0.1 mgk, Basal) was 1.1 ± 0.5 mmol/L and the Glucose ([1]; acute, CNTO 736 0.1 mgk, Basal) was 5.5 ± 1.2 mmol/L. It also gave a Glycerol ([1]; acute, CNTO 736 0.1 mgk, Basal) of 0.2 ± 0.1 mmol/L, an Insulin ([1]; acute, CNTO 736 0.1 mgk, Basal) of 1.1 ± 0.8 ng/mL and an FFA [1, 7] of 0.7 ± 0.3 mmol/L. For the same substance, the Glucose [1, 7] was 7.3 ± 0.5 mmol/L, the Glycerol [1, 7] was 0.1 ± 0.1 mmol/L and the Insulin [1, 7] was 3.5 ± 1.3 ng/mL. The FFA ([1]; acute, CNTO 736 1 mgk, Basal) was 1.1 ± 0.5 mmol/L, the Glycerol ([1]; acute, CNTO 736 1 mgk, Basal) was 0.2 ± 0.1 mmol/L and the Insulin ([1]; acute, CNTO 736 1 mgk, Basal) was 0.9 ± 0.6 ng/mL. For the same substance, the FFA [1, 8] was 0.6 ± 0.4 mmol/L, the Glucose [1, 8] was 8.0 ± 0.8 mmol/L and the Glycerol [1, 8] was 0.1 ± 0.1 mmol/L. For the same substance, the Insulin [1, 8] was 4.5 ± 1.7 ng/mL, the “glycerol turnover (lipolysis)” value ([2]; chronic administration, either dose, basal (fasting) or hyperinsulinemic conditions) was “did not affect glycerol turnover” and the “insulin action / peripheral insulin sensitivity” value ([2]; chronic dosing, mice with diet-induced obesity) was “improve insulin action; also recorded: significantly improves peripheral insulin sensitivity”. For the same substance, the Body weight [2, 9] was 26.1 ± 1.9 g, the Body weight [2, 10] was 26.1 ± 1.9 g and the Body weight [2, 11] was 25.1 ± 1.3 g. For the same substance, the “gluconeogenesis in the fasting state (de novo glucose production)” value ([2]; chronic, i.p. daily for 4 weeks) was “significantly decreased gluconeogenesis; also recorded: inhibits hepatic gluconeogenesis”, the “basal hepatic glucose production” value ([2]; chronic, i.p. daily for 4 weeks, both doses of CNTO 736 (1 or 0.1 mg/kg), exendin-4 7.1 μg/kg) was “significantly decreased” and the “insulin-inhibition of hepatic glucose production” value ([2]; chronic, i.p. daily for 4 weeks, both doses of CNTO 736, exendin-4 7.1 μg/kg) was “increased insulin-inhibition of hepatic glucose production”. The “whole body glucose disposal in the hyperinsulinemic state” value ([2]; chronic, i.p. daily for 4 weeks, high dose of CNTO 736 (1 mg/kg), exendin-4 7.1 μg/kg) was “significantly increased”, the “gluconeogenesis in the fasting state (de novo glucose production)” value ([2]; chronic, i.p. daily for 4 weeks, listed as CNT0736) was “inhibited de novo glucose production” and the FFA [2, 9] was 1.1 ± 0.3 mmol/L. For the same substance, the Glycerol [2, 9] was 0.2 ± 0.0 mmol/L, the Insulin [2, 9] was 1.1 ± 0.6 ng/mL and the FFA [2, 10] was 0.5 ± 0.1 mmol/L. It also gave a Glucose [2, 10] of 7.6 ± 1.1 mmol/L, a Glycerol [2, 10] of 0.1 ± 0.1 mmol/L and an Insulin [2, 10] of 4.6 ± 1.0 ng/mL. For the same substance, the FFA ([2]; chronic, CNTO 736 1 mgk, Basal) was 1.1 ± 0.2 mmol/L, the Glycerol ([2]; chronic, CNTO 736 1 mgk, Basal) was 0.2 ± 0.1 mmol/L and the Insulin ([2]; chronic, CNTO 736 1 mgk, Basal) was 1.4 ± 1.3 ng/mL. For the same substance, the FFA [2, 11] was 0.4 ± 0.1 mmol/L, the Glucose [2, 11] was 7.6 ± 0.9 mmol/L and the Glycerol [2, 11] was 0.1 ± 0.1 mmol/L. For the same substance, the Insulin [2, 11] was 5.0 ± 1.9 ng/mL, the “basal or hyperinsulinemic rate of VLDL production” value [3] was “did not change” and the “basal and hyperinsulinemic rate of VLDL production” value [4] was “significantly decreased; also recorded: decreases VLDL production”. For the same substance, the food intake [5, 12] was “significant reduction”, the water intake [5, 12] was “significant reduction” and the food intake [5, 13] was “significant reduction in food intake”. For the same substance, the water intake [5, 13] was “observed only with exendin-4 treatment”.
